This is an account of results in ChEMBL document CHEMBL1201862, “PubChem BioAssay data set” (2004).

Structures are written as SMILES.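 Protocol summary: plate cells (96-well), add compound at 5 concentrations, incubate 48 h, interpolate endpoints linearly. GI50 marks 50% less growth.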 Active and inactive are the calls of the source. Rule as the data show it: active = GI50 up to about 1.1 µM and inactive = higher.

Test systems include HCC 2998; HOP-92; SR; MOLT-4; SF-295; UO-31; DU-145; HCT-116; A498; IGROV-1; SW-620; OVCAR-3; ACHN; RPMI-8226; SK-MEL-5; PC-3; SK-MEL-2; HCT-15; A549; U-251.
Common to all, as to experiment: growth of human tumour cells (NCI), 48 h

As to `CC1(C)CCCC2(C)C3=C(CCC12)C(=O)OC3` (stereo not given), the GI50 with HCC 2998 was > 100 µM (inactive); with HOP-92 it was > 100 µM (inactive); in the assay on SR, 39.4 µM (inactive); in the assay with MOLT-4, 18.3 µM (inactive); with SF-295 it was > 100 µM (inactive); with UO-31 it was 38.9 µM (inactive). Also, the GI50 in the assay with DU-145, in the assay on HCT-116, in the assay with A498, in the assay on IGROV-1, with SW-620 and with OVCAR-3 was > 100 µM (inactive) throughout. Also, the GI50 in the assay on ACHN was > 100 µM (inactive); in the assay with RPMI-8226, 19.6 µM (inactive); in the assay on SK-MEL-5, 42.7 µM (inactive); with PC-3, > 100 µM (inactive); in the assay with SK-MEL-2 it was > 100 µM (inactive); in the assay on HCT-15, 87.9 µM. Besides, the GI50 in the assay with A549 and in the assay with U-251 was > 100 µM (inactive) in each case.

As to `COc1cccc(C2c3cc4c(cc3OC(C)(N3CCCC3)C2C)OCO4)c1O` (stereo not given), the GI50 in the assay on HCC 2998 was 8.09 µM (inactive); in the assay with HOP-92, 11.5 µM (inactive); with SR, 2.06 µM (inactive); with MOLT-4, 6.64 µM (inactive); in the assay with SF-295, 4.9 µM (inactive); in the assay with UO-31 it was 10.9 µM (inactive). For the same compound, the GI50 in the assay on DU-145 is 3.52 µM (inactive); in the assay on HCT-116, 4.25 µM (inactive); in the assay on A498, 6.4 µM (inactive); in the assay with IGROV-1 it was 6.01 µM (inactive); with SW-620, 4.01 µM (inactive); in the assay on OVCAR-3, 2.05 µM (inactive). The GI50 in the assay with ACHN was 11.3 µM (inactive); in the assay on RPMI-8226, 5.32 µM (inactive); in the assay with SK-MEL-5 it was 2.57 µM (inactive); in the assay with PC-3, 3.32 µM (inactive); with SK-MEL-2 it was 4.98 µM (inactive); with HCT-15 it was 3.6 µM. In addition, the GI50 is 6.7 µM (inactive) in the assay on A549 and 4.35 µM (inactive) in the assay with U-251.

As to `COc1cc2c(/C=C3/C(=O)N(C)c4ccc(O)cc43)c(Cl)[nH]c2cc1C`, the GI50 with HCC 2998 is 0.373 µM (active); with HOP-92 it was 17.2 µM (inactive); in the assay on SR, 0.133 µM (active); in the assay with MOLT-4, 0.209 µM (active); in the assay on SF-295, 0.262 µM (active); in the assay with UO-31, 1.64 µM (inactive). Also, the GI50 in the assay with DU-145 is 0.655 µM (active); in the assay on HCT-116, 0.361 µM (active); in the assay with A498, 2.06 µM (inactive); with IGROV-1 it was 0.733 µM (active); in the assay on SW-620 it was 0.361 µM (active); in the assay with OVCAR-3 it was 0.246 µM (active). The GI50 in the assay with ACHN was 0.532 µM (active); in the assay with RPMI-8226, 0.35 µM (active); with SK-MEL-5 it was 0.282 µM (active); in the assay with PC-3 it was 1.38 µM (inactive); with SK-MEL-2, 0.641 µM (active); with HCT-15, 0.426 µM. The GI50 in the assay with A549 is 0.667 µM (active); with U-251 it was 0.402 µM (active).

As for `COc1ccc2cc(CNCCCN3CCN(CCCNCc4ccc5cc(OC)ccc5c4)CC3)ccc2c1`, the GI50 was 0.24 µM (active) with HCC 2998; 1.43 µM (inactive) in the assay on HOP-92; 0.333 µM (active) with SR; 0.859 µM (active) with MOLT-4; 1.68 µM (inactive) in the assay on SF-295; 1.76 µM (inactive) in the assay on UO-31. Besides, the GI50 in the assay on DU-145 is 1.54 µM (inactive); in the assay with HCT-116, 1.26 µM (inactive); with A498, 1.66 µM (inactive); with IGROV-1, 1.72 µM (inactive); in the assay on SW-620, 0.327 µM (active); in the assay on OVCAR-3, 1.63 µM (inactive). Also, the GI50 was 1.8 µM (inactive) in the assay with ACHN; 0.276 µM (active) in the assay on RPMI-8226; 1.69 µM (inactive) in the assay with SK-MEL-5; 0.966 µM (active) in the assay with PC-3; 1.93 µM (inactive) with SK-MEL-2; 1.57 µM with HCT-15. Also, the results for the GI50 in the assay with A549 and with U-251 were 1.83 µM (inactive) and 1.75 µM (inactive), respectively.

Regarding `CSC12c3cc(C)n(-c4ccccc4)c3CC(C)(C)CN1C(=O)C2Oc1ccccc1` (stereo not given), the GI50 in the assay on HCC 2998 was 41.2 µM (inactive); in the assay on HOP-92, 7.66 µM (inactive); in the assay on SR it was 11.3 µM (inactive); in the assay on MOLT-4, 10.2 µM (inactive); in the assay with SF-295 it was 8.18 µM (inactive); in the assay on UO-31, 25.7 µM (inactive). The GI50 was > 100 µM (inactive) in the assay on DU-145; 12.1 µM (inactive) in the assay on HCT-116; 54 µM (inactive) in the assay on A498; > 100 µM (inactive) in the assay with IGROV-1; 40.1 µM (inactive) in the assay with SW-620; > 100 µM (inactive) with OVCAR-3. Also, the GI50 in the assay with ACHN was 36 µM (inactive); with RPMI-8226, 7.08 µM (inactive); with SK-MEL-5 it was 22.4 µM (inactive); with PC-3 it was 35.2 µM (inactive); in the assay on SK-MEL-2, 72.8 µM (inactive); with HCT-15, 28.1 µM. Moreover, the GI50 in the assay on A549 is 11.7 µM (inactive); with U-251 it was 93.5 µM (inactive).

With `CC(C)(C)OC(=O)NC(CS(=O)(=O)O)C(=O)O` (stereo not given), the GI50 with HCC 2998, with HOP-92, in the assay with SR, with MOLT-4, with SF-295 and in the assay with UO-31 was > 100 µM (inactive) in each case. In addition, the GI50 with DU-145, in the assay on HCT-116, with A498, with IGROV-1, in the assay with SW-620 and in the assay on OVCAR-3 was > 100 µM (inactive) each time. The GI50 in the assay on ACHN was > 100 µM (inactive); in the assay with RPMI-8226 it was > 100 µM (inactive); in the assay on SK-MEL-5 it was > 100 µM (inactive); with PC-3 it was > 100 µM (inactive); in the assay on SK-MEL-2 it was > 100 µM (inactive); in the assay with HCT-15 it was more than 100 µM. For the same compound, the GI50 in the assay on A549 and with U-251 was > 100 µM (inactive) in each case.

Take `CC(C)(C)OC(=O)N[C@H]1CC2(C=C(Cl)C(=O)C(Cl)=C2)OC1=O`: the GI50 was 16.6 µM (inactive) with HCC 2998; 16.9 µM (inactive) in the assay on HOP-92; 1.93 µM (inactive) in the assay on SR; 2.48 µM (inactive) with MOLT-4; 21.9 µM (inactive) in the assay on SF-295; 18.8 µM (inactive) with UO-31. The GI50 in the assay with DU-145 is 27.9 µM (inactive); with HCT-116, 14.8 µM (inactive); in the assay on A498, 4.18 µM (inactive); in the assay on IGROV-1, 18.7 µM (inactive); with SW-620, 4.33 µM (inactive); in the assay with OVCAR-3, 14.8 µM (inactive). Also, the GI50 in the assay on ACHN is 14.6 µM (inactive); with RPMI-8226, 2.65 µM (inactive); with SK-MEL-5, 19.1 µM (inactive); in the assay on PC-3, 17.1 µM (inactive); in the assay on SK-MEL-2, 19.1 µM (inactive); in the assay with HCT-15, 14.2 µM. Further, the GI50 with A549 is 38.3 µM (inactive); with U-251, 20.7 µM (inactive).
